# Measured values: patent publication US7666875B2, “Hydantoin compounds” (Eisai R&D Management Co., Ltd., priority 2005, dated 2010)
# Molecular target: T1, human T-bet (Homo sapiens, UniProt Q9UL17)
# T1 construct: expressed in transfected cells; host or cells: engineered HEK cells (HEKT-bet)
# T1 sequence (Q9UL17 1-535): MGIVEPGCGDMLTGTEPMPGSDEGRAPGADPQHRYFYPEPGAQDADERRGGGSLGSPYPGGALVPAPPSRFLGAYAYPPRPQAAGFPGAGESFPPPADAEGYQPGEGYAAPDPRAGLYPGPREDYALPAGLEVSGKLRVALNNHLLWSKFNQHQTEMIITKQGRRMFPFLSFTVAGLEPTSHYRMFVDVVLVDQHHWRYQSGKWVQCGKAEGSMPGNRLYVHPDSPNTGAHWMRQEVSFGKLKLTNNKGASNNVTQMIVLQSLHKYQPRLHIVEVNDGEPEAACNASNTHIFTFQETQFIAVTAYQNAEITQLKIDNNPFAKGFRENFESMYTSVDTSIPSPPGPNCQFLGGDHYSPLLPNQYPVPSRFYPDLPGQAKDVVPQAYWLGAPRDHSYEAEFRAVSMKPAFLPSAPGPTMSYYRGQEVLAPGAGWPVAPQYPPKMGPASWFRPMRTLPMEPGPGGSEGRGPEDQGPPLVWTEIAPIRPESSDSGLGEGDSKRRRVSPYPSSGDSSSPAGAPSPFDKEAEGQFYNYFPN
# Assay: HEKT-bet-luc assay (T-bet dependent luciferase reporter in engineered HEK cells)
# Type: cell-based
# Conditions: Table 3; HEKT-bet cells, compound 24 hours; IC50 normalized to reference ER-213038; read-out: IC50
# Description: HEKT-bet-luc assay: This assay measures a T-bet dependent reporter (luciferase) activity in engineered HEK cells that express a human T-bet and a T-box responsive element driving luciferase reporter. HEKT-bet cells were plated at 2×10^4/well in 96-well plate and compound was added into cell culture for 24 hours. Luciferase activity was measured by adding 50 μl of Steady-Glo reagent (Promega) and samples were read in Victor V reader (PerkinElmer). The IC50 values were calculated utilizing a maximum value corresponding to the amount of luciferase in the absence of a test compound and a minimum value corresponding to a test compound value obtained at maximum inhibition.
# Determination of Normalized HEKT-bet IC50 values: Compounds were assayed in microtiter plates. Each plate included a reference compound which was ER-213038. The un-normalized IC50 value for a particular compound was divided by the IC50 value determined for the reference compound in the same microtiter plate to provide a relative potency value. The relative potency value was then multiplied by the established potency of the reference compound to provide the normalized HEKT-bet IC50 value. […] The IC50 values provided herein were obtained using this normalization method.
row,SMILES,IC50
1,COCCN1C(=O)N(CCCc2cccnc2)C(=O)C12CCN(Cc1ccnc3ccccc13)CC2 [Example 81],650 nM
2,COCCN1C(=O)N(CC#Cc2cccc(OC)c2)C(=O)C12CCN(Cc1ccccc1)CC2 [Example 82],650 nM
3,COc1cc(CN2CCC3(CC2)C(=O)N(C/C=C/c2ccccc2)C(=O)N3CCn2cccc2)cc(OC)c1 [Example 83],667 nM
4,COCCN1C(=O)N(Cc2cccc(OC)c2)C(=O)C12CCN(Cc1cccc(-c3cccc(O)c3)c1)CC2 [Example 84],681 nM
5,COCCN1C(=O)N(Cc2cccc(OC)c2)C(=O)C12CCN(Cc1cccc(-c3ccsc3)c1)CC2 [Example 85],750 nM
6,COc1cc(CN2CCC3(CC2)C(=O)N(C/C=C/c2ccccc2)C(=O)N3CC=C(C)C)cc(OC)c1 [Example 86],757 nM
7,COCCN1C(=O)N(Cc2cccc(OC)c2)C(=O)C12CCN(Cc1c(Cl)cccc1Cl)CC2 [Example 87],782 nM
8,O=C1N(C/C=C/c2ccccc2)C(=O)C2(CCN(Cc3cccc4ccccc34)CC2)N1CCCO [Example 88],798 nM
9,COCCN1C(=O)N(C/C=C/Cc2cccc(OC)c2)C(=O)C12CCN(Cc1ccccc1)CC2 [Example 89],835 nM
10,COCCN1C(=O)N(CCCc2ccccc2)C(=O)C12CCN(Cc1ccccc1)CC2 [Example 90],838 nM
11,COCCN1C(=O)N(Cc2cccc(OC)c2)C(=O)C12CCN(Cc1cc(C)c(C)s1)CC2 [Example 91],845 nM
12,COCCN1C(=O)N(Cc2cccc(OC)c2)C(=O)C12CCN(Cc1cccc(-c3ccc4[nH]ccc4c3)c1)CC2 [Example 92],868 nM
13,COCCN1C(=O)N(CCCCCCCCO)C(=O)C12CCN(Cc1ccccc1)CC2 [Example 93],914 nM
14,COCCN1C(=O)N(Cc2ccoc2)C(=O)C12CCN(Cc1cc(OC)cc(OC)c1)CC2 [Example 94],936 nM
15,CCN1C(=O)N(Cc2ccc3ccccc3c2)C(=O)C12CCN(Cc1ccc3ccccc3c1)CC2 [Example 95],970 nM
16,COCCN1C(=O)N(Cc2ccc3cc4ccccc4cc3c2)C(=O)C12CCN(Cc1ccccc1)CC2 [Example 96],1030 nM
17,COc1cccc(CN2CCC3(CC2)C(=O)N(Cc2cc(OC)cc(OC)c2)C(=O)N3Cc2ccc3c(c2)nnn3C)c1 [Example 97],1080 nM
18,COc1cccc(CN2C(=O)N(Cc3cccc(C#N)c3)C3(CCN(Cc4ccccc4)CC3)C2=O)c1 [Example 98],1100 nM
19,COc1cc(CN2CCC3(CC2)C(=O)N(Cc2cc(OC)cc(OC)c2)C(=O)N3CSC)cc(OC)c1 [Example 99],1150 nM
20,COCCN1C(=O)N(Cc2ccc(C(=O)c3ccccc3)cc2)C(=O)C12CCN(Cc1ccccc1)CC2 [Example 100],1240 nM
21,COCCN1C(=O)N(Cc2cccc(OC)c2)C(=O)C12CCN(Cc1cccc3nsnc13)CC2 [Example 101],1240 nM
22,COCCN1C(=O)N(Cc2cccc(OC)c2)C(=O)C12CCN(Cc1cc(F)cc3c1OCOC3)CC2 [Example 102],1320 nM
23,COCCN1C(=O)N(Cc2cccc(OC)c2)C(=O)C12CCN(Cc1ccccc1OC(F)(F)F)CC2 [Example 103],1340 nM
24,CCOC(=O)CCCCN1C(=O)N(Cc2cccc(OC)c2)C(=O)C12CCN(Cc1ccccc1)CC2 [Example 104],1390 nM
25,COc1cccc(CN2C(=O)N(Cc3cccc4cccnc34)C3(CCN(Cc4cccc5ccccc45)CC3)C2=O)c1 [Example 105],1390 nM
26,COCCN1C(=O)N(Cc2cccc(OC)c2)C(=O)C12CCN(C1CCc3ccc(C)cc31)CC2 (stereo not drawn) [Example 106],1420 nM
27,COCCN1C(=O)N(CC(=O)c2ccc3ccccc3c2)C(=O)C12CCN(Cc1ccccc1)CC2 [Example 107],1460 nM
28,COCCN1C(=O)N(Cc2cccc(OC)c2)C(=O)C12CCN(C/C=C/c1ccc(OC)cc1)CC2 [Example 108],1470 nM
29,COc1cccc(CN2C(=O)N(CC=C(C)C)C3(CCN(Cc4ccccc4)CC3)C2=O)c1 [Example 109],1520 nM
30,COCCN1C(=O)N(Cc2cccc(OC)c2)C(=O)C12CCN(CC=C(c1ccccc1)c1ccccc1)CC2 [Example 110],1540 nM
